Results on 9 compounds are retold here after patent US5235036A, “CRF analogs” (The Salk Institute for Biological Studies, priority 1991, dated 1993).

Entries after “also recorded” stand apart in the source; their conditions may differ. Like-named read-outs stand apart in the source and are kept apart here. Where a SMILES comes first, the peptide text is derived from it. Where no end group is shown, it is not given here. [ ]: non-standard residue; d: D form.

A short description of experiment [1]: lowering of blood pressure when injected peripherally. Format: in vivo. As to conditions: e.g. intravenously.
Experiment [2] deals with secretion of ACTH and β-END-LI. Nature of the experiment: in vivo testing: stimulation of the secretion of ACTH and β-END-LI. Particulars: test system not stated in the example. As for the experimental part:
(§1) The synthetic peptides [Ala^20 ]-oCRF and [Ala^39 ]-oCRF are examined for their effects on the secretion of ACTH and β-endorphin in vitro and also in vivo. The potency of synthetic oCRF analogs to stimulate the secretion of ACTH and β-endorphin by cultured rat pituitary cells is measured using the procedure as generally set forth in Endocrinology, 91, 562 (1972) and compared against synthetic oCRF. [Ala^20 ]-oCRF is considered to be about 2 to 4 times as potent as the native hormone. […] In vivo testing which can be carried out using the general procedure set forth in C. Rivier et al., Science.

For experiment [3] the following is noted: background statement; mammals; cited from earlier work.
Experiment [4] deals with ACTH and β-endorphin-like activities (β-END-LI). Particulars: in vitro and in vivo; background statement; cited from earlier work.
Experiment [5] relates to cultured rat pituitary cells. The experiment can be described thus: secretion of ACTH and β-endorphin by cultured rat pituitary cells, compared against synthetic oCRF. Format: cell-based. The method, then: as §1
Another experiment deals with gastric acid production. Particulars: background statement; cited from earlier work.

Regarding `CC[C@H](C)[C@H](NC(=O)[C@@H](NC(=O)[C@H](CCC(=O)O)NC(=O)[C@H](CCSC)NC(=O)[C@H](CC(C)C)NC(=O)[C@H](CCCCN)NC(=O)[C@H](CCCNC(=N)N)NC(=O)[C@H](CC(N)=O)NC(=O)[C@H](CO)NC(=O)[C@H](Cc1c[nH]cn1)NC(=O)[C@H](C)NC(=O)[C@H](CCC(N)=O)NC(=O)[C@H](CCC(N)=O)NC(=O)[C@H](C)NC(=O)[C@H](CC(C)C)NC(=O)[C@H](CCC(N)=O)NC(=O)[C@H](CCC(=O)O)NC(=O)[C@H](C)NC(=O)[C@H](CCCNC(=N)N)NC(=O)[C@H](C)NC(=O)[C@H](CCSC)NC(=O)[C@H](C)NC(=O)[C@H](CC(C)C)NC(=O)[C@@H](NC(=O)[C@H](CCC(=O)O)NC(=O)[C@H](CCCNC(=N)N)NC(=O)[C@H](CC(C)C)NC(=O)[C@H](CC(C)C)NC(=O)[C@H](Cc1c[nH]cn1)NC(=O)[C@@H](Cc1ccccc1)NC(=O)[C@@H](NC(=O)[C@H](CC(C)C)NC(=O)[C@H](CC(=O)O)NC(=O)[C@H](CC(C)C)NC(=O)[C@H](CO)NC(=O)[C@@H](NC(=O)[C@@H]1CCCN1C(=O)[C@@H]1CCCN1C(=O)[C@@H](N)CCC(=O)O)[C@@H](C)CC)[C@@H](C)O)C(C)C)[C@@H](C)CC)C(N)=O` [[D-Phe^12, Ala^20]-rCRF(3-41)] (H-EPPISLDLT[dF]HLLREVLAMARAEQLAQQAHSNRKLMEII-NH2), the “lowering of blood pressure” value in experiment [1] is “causes significant lowering of blood pressure”. For the same compound, the “biopotency / stimulation of the secretion of ACTH and β-END-LI” value (shortened to “biopotency / stimulation”) in experiment [2] is “biopotent”.

In the case of “SEEPPISLDLTFHLLREVLAMARAEQLAQQAHSNRKLMEII [[Ala^20]-rCRF]”, the “lowering of blood pressure” value in experiment [1] was “causes significant lowering of blood pressure”. Also, the “biopotency / stimulation” value in experiment [2] is “biopotent and stimulates the secretion of ACTH and β-END-LI”.

Turning to “SEEPPISLDLTFHLLREVLEMARAEQLAQQAHSNRKLMAII [[Ala^39 -rCRF]”, the “lowering of blood pressure” value in experiment [1] is “causes significant lowering of blood pressure”. Moreover, the “biopotency / stimulation” value in experiment [2] was “biopotent, stimulates the secretion of ACTH and β-END-LI”.

In the case of “SQEPPISLDLTFHLLREMLEMAKAEQEAEQAALNRLLLEEA [AHC]”, the “lowering of blood pressure” value in experiment [3] is “substantially lower blood pressure”. Also, the “stimulation of ACTH and β-endorphin secretion / β-END-LI” value in experiment [4] was “stimulate ACTH and β-endorphin-like activities (β-END-LI) in vitro and in vivo”.

Consider “SQEPPISLDLTFHLLREVLAMTKADQLAQQAHSNRKLLAIA [[Ala^20,29]-oCRF]”, for which the “lowering of blood pressure” value in experiment [1] is reported as “lowers blood pressure”. Further, the “biopotency / stimulation” value in experiment [2] is given as “biopotent”.

Consider “SQEPPISLDLTFHLLREVLAMTKADQLAQQAHSNRKLLDIA [[Ala^20]-oCRF]”, for which the “lowering of blood pressure” value in experiment [1] is reported as “a significant lowering of blood pressure”.

On to “SQEPPISLDLTFHLLREVLEMTKADQLAQQAHSNRKLLAIA [[Ala^39]-oCRF]”, for which, in experiment [1], the “lowering of blood pressure” value was “a significant lowering of blood pressure”. Besides, the “increase in biopotency in vitro over the native hormone” value in experiment [5] was around 85%.

As to “Ser-Gln-Glu-Pro-Pro-Ile-Ser-Leu-Asp-Leu-Thr-Phe-His-Leu-Leu-Arg-Glu-Val-Leu-Glu-Met-Thr-Lys-Ala-Asp-Gln-Leu-Ala-Gln-Gln-Ala-His-Ser-Asn-Arg Lys-Leu-Leu-Asp-Ile-Ala (SQEPPISLDLTFHLLREVLEMTKADQLAQQAHSNRKLLDIA) [oCRF]”, the “lowering of blood pressure” value in experiment [3] was “lowers blood pressure in mammals; also recorded: substantially lower blood pressure”. The “stimulation of ACTH and β-endorphin secretion / β-END-LI” value in experiment [4] was “stimulates the secretion of ACTH and β-endorphin; also recorded: stimulate ACTH and β-endorphin-like activities (β-END-LI) in vitro and in vivo”. For the same compound, the gastric acid production result with gastric acid production is reported as “inhibits gastric acid production”.

Take “Ser-Glu-Glu-Pro-Pro-Ile-Ser-Leu-Asp-Leu-Thr-Phe-His-Leu-Leu-Arg-Glu-Val-Leu-Glu-Met-Ala-Arg-Ala-Glu-Gln-Leu-Ala-Gln-Gln-Ala-His-Ser-Asn-Arg -Lys-Leu-Met-Glu-Ile-Ile (SEEPPISLDLTFHLLREVLEMARAEQLAQQAHSNRKLMEII) [rCRF]”: the “lowering of blood pressure” value in experiment [3] is reported as “substantially lower blood pressure”. For the same compound, in experiment [4], the “stimulation of ACTH and β-endorphin secretion / β-END-LI” value was “stimulate ACTH and β-endorphin-like activities (β-END-LI) in vitro and in vivo”.
